From PMC10730845, “Endoxifen downregulates AKT phosphorylation through protein kinase C beta 1 inhibition in ERα+ breast cancer” (NPJ Breast Cancer, 2023)

Experiments:
PKCβ1 in MCF7AC1 cells [1] = test: Immunoblot of PKCβ1 and pPKCβ1^Ser661, MCF7AC1; type: cell-based, human; conditions: serum starved, 1 µM ENZA 2 h, 200 nM PMA 30 min
PKCβ1 in MCF7AC1 cells [2] = test: Immunoblot of PKCβ1 and pPKCβ1^Ser661, MCF7AC1; type: cell-based, human; conditions: serum starved; for Effect on PKCβ1 total protein in insulin treated cells: 100 nM insulin 1 h, ENDX 0.01, 0.1, 5 µM, TAM 0.1 µM, ICI 0.1 µM
Description: (§1) The ENDX hydrochloride utilized in this study was synthesized in collaboration between Mayo Clinic and National Institute of Health (NIH). Estrogen deprived MCF7AC1 were treated with vehicle control or ENDX (National Cancer Institute) for 24 h. For the phorbol 12-myristate 13-acetate (PMA) (LC Laboratories, #P-1680) experiments, MCF7AC1 cells were maintained in serum-free medium for 24 h prior to pretreatment with vehicle or ENDX for 2 h followed by treatment with 20 or 200 nM PMA for 20 min. For the insulin (Sigma-Aldrich, #I0516) experiments, MCF7AC1 and T47D cells were maintained in serum-free medium for 24 h prior to pretreatment with vehicle control or drugs for 2 h followed by treatment with 100 nM insulin for 1 h.
(§2) Protein lysates were prepared using the RIPA lysis buffer system (ChemCruz #sc-24948) and quantified using the DC^TM Protein Assay reagents (Bio-Rad #5000112). Equal amounts of protein lysates were separated on 10% Criterion gels (Bio-Rad #3450112), transferred to PVDF membranes (Bio-Rad #1620177), blocked in TBST-5% milk and probed with primary antibodies listed in Supplementary Table 5, at the indicated dilutions. Membranes were incubated with HRP-conjugated anti-rabbit (CST #7074) or anti-mouse (CST #7076) secondary antibodies and visualized using chemiluminescent West Pico (Thermo Scientific #34580) or West Femto (Thermo Scientific #34096) reagents and a Li-Cor Odyssey® XF imager. Protein lysates from the MCF7AC1 xenograft model were obtained from a previous study. Quantitation of the protein bands signal intensity was performed using the NIH ImageJ image analysis software (https://imagej.nih.gov/ij///index.html). For the quantitation of the phospho protein levels, we first normalized total protein levels to β-actin loading control and used these values to normalize the phospho protein levels and compared change in protein expression levels relative to vehicle control normalized to 1.0. For the quantitation of total protein levels, we normalized the total protein levels to β-actin and compared change in expression levels relative to vehicle control normalized to 1.0. All blots were processed in parallel and derived from the same experiments. Unprocessed immunoblot images are provided in Supplementary Figs. 9–13.

[3] = test system: AKT phosphorylation (pAKT^Ser473, pAKT^Thr308, p-AKT substrates) in MCF7AC1 cells; test: Immunoblot of AKT signaling and PARP cleavage, MCF7AC1; type: cell-based, human; conditions: for Effect on insulin-stimulated AKT^Ser473 and AKT^Thr308 phosphorylations: 100 nM insulin 1 h, 0.1 µM
Description: as §1, with “For the phorbol 12-myristate 13-acetate (PMA) (LC Laboratories, #P-1680) experiments, MCF7AC1 cells were maintained in serum-free medium for 24 h prior to pretreatment with vehicle or ENDX for 2 h followed by treatment with 20 or 200 nM PMA for 20 min.” left out
as §2

[4] = test system: ERα+/HER2- metastatic breast cancer; conditions: cited from earlier work
[5] = test system: AKT phosphorylation in T47D cells; test: Immunoblot of AKT phosphorylation, serum starved T47D; type: cell-based, human; conditions: 0.1 µM
Description: as §1
as §2, with “Protein lysates from the MCF7AC1 xenograft model were obtained from a previous study.” left out, “All blots were processed in parallel and derived from the same experiments. Unprocessed immunoblot images are provided in Supplementary Figs. 9–13.” left out

MCF7AC1 cells [6] = test: IncuCyte Annexin V apoptosis assay, MCF7AC1; type: cell-based, human; conditions: for Effect on apoptosis: CSS medium, 48 h, ENDX 5 µM, TAM 0.1 µM, ICI 0.1 µM
Description: (§3) MCF7AC1 and T47D-LTED cells were plated at a density of 2000 cells per well in CSS medium for 24 h. Cells were then co-treated for 48 h with vehicle or drug, IncuCyte Annexin V green reagent (#4642, 1:300), an early-stage apoptosis marker, and IncuCyte NucLight rapid red reagent (#4717, 1:500), a dye that stains all cell nuclei red, in CSS medium. MCF7AC1^caAKT cells were plated at a cell density of 2000 cells per well in CSS medium in the absence or presence of cumate for 48 h and then co-treated with vehicle or drug, Annexin V green and NucLight rapid red reagents in the absence or presence of cumate for an additional 48 h in CSS medium.

[7] = ERα+ breast cancer patients receiving 20 mg/day TAM monotherapy; cited from earlier work
[8] = test system: AKT^Ser473 phosphorylation in T47D-LTED cells; test: Immunoblot of pAKT^Ser473, T47D-LTED; type: cell-based, human; conditions: CSS medium, 24 h; 1 and 5 µM, but not 0.1 µM
Description: as §2, with “All blots were processed in parallel and derived from the same experiments. Unprocessed immunoblot images are provided in Supplementary Figs. 9–13.” left out

T47D-LTED cells [9] = test: Crystal violet cell viability assay, T47D-LTED; type: cell-based, human; conditions: CSS medium, six days
Description: (§4) Cells were plated at a density of 2000 cells per well. Cell viability of (i) vehicle or drug treated MCF7AC1 and T47D-LTED cells in CSS medium, (ii) siNT or siPKCβ-transfected MCF7AC1 cells in CSS medium and (iii) T47D cells in FBS versus CSS medium were analyzed by crystal violet staining assay after 6 days of treatment or siRNA transfection as previously described. Cell viability was calculated as the average absorbance of the drug treated cells divided by the average absorbance of the vehicle treated cells × 100.
(§5) Supplementary Figure 6. […] Cell viability is assessed by the crystal violet assay. b, MCF7AC1 cells were co-treated with vehicle control or 0.01, 0.1 and 5 µM MK-2206 and IncuCyte Annexin V green and NucLight rapid red reagents in CSS medi um for 48 hours. […]
Cells were plated at a density of 2000 cells per well. c, MCF7AC1 cells were treated with vehicle control or 0.01, 0.1 and 5 µM MK-2206 in CSS medium for 24 hours. […] Cell viability is assessed by the crystal violet assay. f, Parental T47D and T47D-LTED cells were processed for protein lysates. […] Cell viability is assessed by the crystal violet assay. h, T47D-LTED cells were co-treated with vehicle control or 0.01, 0.1 and 5 µM MK -2206 and IncuCyte Annexin V green and NucLight rapid red reagents in CSS medium for 48 hours. […] Cell viability is assessed by the crystal violet assay. […]

MCF7AC1 cells [10] = test: Crystal violet cell viability / proliferation assay, MCF7AC1; type: cell-based, human; conditions: estrogen deprived (CSS), six days
Description: Fig. 1 Z-endoxifen (ENDX) effects on cell viability and apoptosis in estrogen deprived ERα+ /HER2- MCF7AC1 cells. a Cells grown in CSS medium were treated with vehicle control or the indicated ENDX concentrations for […]. Cell viability was assessed by the crystal violet assay. b Cells were co-treated with vehicle control or the indicated ENDX concentrations, IncuCyte Annexin V green and NucLight red reagents in CSS medium for 48 h. […] Data represents the mean of six wells per treatment performed as biological duplicates ± s.d. **p ≤ 0.01; ***p ≤ 0.001; ****p ≤ 0.0001 by one-way ANOVA.
as §4

T47D-LTED cells [11] = test: IncuCyte Annexin V apoptosis assay, T47D-LTED; type: cell-based, human; conditions: CSS medium; 1 and 5 µM, but not 0.1 µM
Description: as §3, §5
Cells were plated at a density of 2000 cells per well. c, MCF7AC1 cells were treated with vehicle control or 0.01, 0.1 and 5 µM MK-2206 in CSS medium for 24 hours. […] Cell viability is assessed by the crystal violet assay. f, Parental T47D and T47D-LTED cells were processed for protein lysates. […] Percentage of cells undergoing apoptosis was calculated as mentioned in b. i, T47D-LTED cells were treated with vehicle control or 0.01, 0.1 and 5 µM MK -2206 in CSS medium for 24 hours . […]

Cn1cc(C2=C(c3cn(C4CCN(Cc5ccccn5)CC4)c4ccccc34)C(=O)NC2=O)c2ccccc21 [enzastaurin]
Effect on PKCβ1 expression (PKCβ1 in MCF7AC1 cells [1]): neither impacted the expression of PKCβ1 | Effect on PMA-stimulated PKCβ1^Ser661 phosphorylation (PKCβ1 in MCF7AC1 cells [1]): reduced PKCβ1^Ser661 phosphorylation

CCCCCCCCCCCCCC(=O)O[C@@H]1[C@@H](C)[C@@]2(O)[C@@H](C=C(CO)C[C@]3(O)C(=O)C(C)=C[C@@H]23)[C@@H]2C(C)(C)[C@]12OC(C)=O [PMA, phorbol 12-myristate 13-acetate, reference compound]
Effect of PKC agonist on PKCβ1^Ser661 and AKT^Ser473 phosphorylation (PKCβ1 in MCF7AC1 cells [2]; 20 and 200 nM, 20 min): stimulated PKCβ1^Ser661 auto-phosphorylation and AKT^Ser473 phosphorylation

CC/C(=C(\c1ccccc1)c1ccc(OCCN(C)C)cc1)c1ccccc1 [TAM, tamoxifen, reference compound]
Effect on insulin-stimulated AKT^Ser473 and AKT^Thr308 phosphorylations ([3]; serum starved): failed to inhibit insulin-stimulated AKT^Ser473 and AKT^Thr308 phosphorylations | PFS in CDK4/6 inhibitor naïve patients ([4]; CDK4/6i naïve): 2.4 m | Progression free survival (PFS) overall ([4]; women with ERα+/HER2- metastatic breast cancer progressed on endocrine therapy): 1.8 m | Effect on insulin-stimulated AKT^Ser473 phosphorylation [5]: failing to block insulin-stimulated AKT^Ser473 phosphorylation | Effect on apoptosis (MCF7AC1 cells [6]): failed to induce apoptosis | Effect on PKCβ1 total protein in insulin treated cells (PKCβ1 in MCF7AC1 cells [2]): failed to diminish PKCβ1 total protein expression

CC/C(=C(\c1ccc(O)cc1)c1ccc(OCCN(C)C)cc1)c1ccccc1 [4-HT]
Clinically attainable serum concentration [7]: < 5 nM

C[C@]12CC[C@@H]3c4ccc(O)cc4C[C@@H](CCCCCCCCC[S+]([O-])CCCC(F)(F)C(F)(F)F)[C@H]3[C@@H]1CC[C@@H]2O (stereo partly drawn) [ICI, ICI-182780, reference compound]
Effect on insulin-stimulated AKT^Ser473 and AKT^Thr308 phosphorylations ([3]; serum starved): failed to inhibit insulin-stimulated AKT^Ser473 and AKT^Thr308 phosphorylations | Effect on insulin-stimulated AKT^Ser473 phosphorylation [5]: failing to block insulin-stimulated AKT^Ser473 phosphorylation | Effect on apoptosis (MCF7AC1 cells [6]): failed to induce apoptosis | Effect on PKCβ1 total protein in insulin treated cells (PKCβ1 in MCF7AC1 cells [2]): failed to diminish PKCβ1 total protein expression

Insulin: known activator of AKT^Ser473 phosphorylation (Sigma-Aldrich)
Effect on AKT^Ser473 phosphorylation ([3]; serum starved, 100 nM, 1 h): robustly stimulated AKT^Ser473 phosphorylation

NC1(c2ccc(-c3nc4ccn5c(=O)[nH]nc5c4cc3-c3ccccc3)cc2)CCC1 [MK-2206, reference compound]
Concentrations reducing AKT^Ser473 phosphorylation [8]: ≥ 1 µM | Concentrations at which AKT^Ser473 phosphorylation was reduced ([3]; estrogen deprived (CSS), 24 h): ≥ 1 µM | Concentration at which apoptosis (annexin V binding and PARP1 cleavage) was induced (MCF7AC1 cells [6]; estrogen deprived (CSS)): 5 µM | Concentration from which growth was significantly inhibited (T47D-LTED cells [9]): ≥ 0.1 µM | Concentrations at which growth was inhibited (MCF7AC1 cells [10]): ≥ 0.1 µM | Concentrations increasing apoptosis (annexin V staining, PARP cleavage) (T47D-LTED cells [11]): ≥ 1 µM
